Molecules are shown by their SMILES.

This is an account of results in patent publication US5053415A, “Pyridine derivatives” (Imperial Chemical Industries PLC, priority 1988, dated 1991).

In one experiment the target is T1, thromboxane receptor (Homo sapiens, UniProt P21731).
T1 construct: human, citrated, platelet-rich plasma; endogenous in cells; host or cells: human platelets in citrated platelet-rich plasma
T1 sequence (P21731 1-343): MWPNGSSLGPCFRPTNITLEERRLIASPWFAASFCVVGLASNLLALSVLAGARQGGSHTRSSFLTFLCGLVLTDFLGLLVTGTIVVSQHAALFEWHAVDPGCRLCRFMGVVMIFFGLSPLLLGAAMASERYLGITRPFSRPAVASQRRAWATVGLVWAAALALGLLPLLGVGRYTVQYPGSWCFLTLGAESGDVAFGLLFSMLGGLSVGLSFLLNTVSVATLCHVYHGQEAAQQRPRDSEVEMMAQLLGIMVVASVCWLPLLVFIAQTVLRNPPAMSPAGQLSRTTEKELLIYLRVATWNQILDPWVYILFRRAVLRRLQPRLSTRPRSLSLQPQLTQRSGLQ
Nature of the experiment: test (b): blood platelet aggregation test, U46619-stimulated aggregation of human citrated platelet-rich plasma. It counts as cell-based. As to conditions: averaged over several concentrations. The text has this:
(b) a blood platelet aggregation test based on that described by Born (Nature, 1962, 194, 927-929) and involving:
(i) aggregating human, citrated, platelet-rich plasma by addition of the TXA2 mimetic agent U46619 so that a dose-response curve is generated;
(ii) generating a dose-response curve for U46619 stimulated platlet aggregation in the presence of increasing amounts of test compound (generally in the range 10^-5 M to 10^-10 M); and
(iii) calculating a KB value indicating potency of TXA2 antagonism for the test compound, averaged over several concentrations, from the calculated 50% response value for U46619 aggregation in the presence and absence of test compound; or […]

In a further experiment the target is T2, TXA2 synthase (Homo sapiens, UniProt P24557).
T2 construct: human platelet microsomal TXA2 synthase preparation; from tissue; host or cells: human platelet microsomes
T2 sequence (P24557 1-533): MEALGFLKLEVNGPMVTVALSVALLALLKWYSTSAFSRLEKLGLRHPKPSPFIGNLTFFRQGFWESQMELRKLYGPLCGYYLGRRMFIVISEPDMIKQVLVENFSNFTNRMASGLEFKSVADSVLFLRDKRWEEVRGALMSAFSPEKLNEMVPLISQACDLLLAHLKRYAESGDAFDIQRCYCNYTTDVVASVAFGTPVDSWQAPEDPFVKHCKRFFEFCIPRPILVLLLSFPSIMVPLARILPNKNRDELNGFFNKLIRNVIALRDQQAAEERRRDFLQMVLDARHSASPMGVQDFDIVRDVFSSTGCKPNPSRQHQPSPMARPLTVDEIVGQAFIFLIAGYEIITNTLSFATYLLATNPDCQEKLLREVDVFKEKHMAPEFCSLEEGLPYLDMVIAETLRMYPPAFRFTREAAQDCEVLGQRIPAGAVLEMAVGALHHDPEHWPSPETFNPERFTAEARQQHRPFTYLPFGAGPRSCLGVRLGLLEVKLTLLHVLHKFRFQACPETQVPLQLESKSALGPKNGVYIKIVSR
Nature of the experiment: test (e): human platelet microsomal TXA2 synthase inhibition (conversion of arachidonic acid to TXB2). The format is biochemical.

On thromboxane receptor, `COc1ccc(OC(C)(C)[C@H]2OC[C@@H](C/C=C\CCC(=O)O)[C@@H](c3cccnc3)O2)cc1` (relative stereo) [Example 1, 4(Z)-6[(2,4,5-cis)-2-(1-(4-methoxyphenoxy)-1-methylethyl)-4-(3-pyridyl)-1,3-dioxan-5-yl]-hexenoic acid] gave a Kb of 300 nM. In addition, the 50% inhibitory concentration (IC50) on TXA2 synthase is 40 nM.

The term IC50 denotes the point on the concentration scale where inhibition reaches its midpoint.
